The values that follow come from patent publication US12590062B2, “PD-1/PD-L1 inhibitors” (Gilead Sciences, Inc., priority 2017, dated 2026).

One test has as its target T1, PD-1/PD-L1 interaction (Homo sapiens, UniProt Q9NZQ7).
T1 construct: expressed in transfected cells; host or cells: CHO cells (aAPC-PD-L1) co-cultured with Jurkat cells overexpressing PD-1 and an NFAT-luciferase reporter
In words: PD-1/PD-L1 NFAT reporter co-culture assay. It is filed as cell-based. As to conditions: Jurkat PD-1 NFAT-luciferase cells co-cultured with aAPC-PD-L1 CHO cells, 6 hrs at 37° C.; read-out: EC50 NFAT Luciferase. An outline of the steps:
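First, CHO cells displaying anti-CD3 antibody and PD-L1 were plated overnight. Next, compound-treated PD-1 Jurkat NFAT-luciferase reporter cells in 2% FBS RPMI were added for 6 h at 37 °C. Finally, ONE-Glo luminescence was read and EC50 values fitted with a four-parameter equation.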

A further test concerns the target T2, PD-L1 (Homo sapiens, UniProt Q9NZQ7).
T2 construct: determine if they can specifically dimerize the extracellular domains of PD-L1
The test is described as follows: PD-L1/PD-L1 dimerization biochemical protein-protein interaction assay (ALPHA). It is filed as binding. To be noted: compound-induced PD-L1 dimerization, head prints '1 nM' (0.5 nM His-tagged PD-L1 and 0.5 nM FLAG-tagged PD-L1), read-out: AC50 PDL1 Dimer Alpha 1 nM. Summed up: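 After 2 h at 25 °C with compound, His- and FLAG-tagged PD-L1 ECDs (each 0.5 nM final; 25 mM Hepes pH 7.4, 150 mM NaCl) were detected by sequential anti-His acceptor and anti-FLAG donor bead incubations. Dose-response curves fitted to four-parameter equation for AC50.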

The target of test [1] is T3, interaction between the recombinant extracellular domain (ECD) of PD-1 and native cell-bound PD-L1 (Homo sapiens, UniProt Q9NZQ7).
T3 construct: expressed in transfected cells
The test is described as follows: CHO/PD-L1 cell capture assay. It is filed as cell-based. As to conditions: CHO cells overexpressing PD-L1, pre-incubated 1 hr with compound, captured on biotinylated Fc-PD-1 coated plates, 75 min at room temperature. An outline of the steps:
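EC50 values came from four-parameter fits of counts of Draq5-stained CHO-PD-L1 cells retained on plate-bound biotinylated Fc-PD-1 ECD, enumerated by high-content imaging. Cells in PBS pH 7.4 with EDTA and 2% BSA had 1 hr compound pre-incubation, then 75 min capture at room temperature.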

The target of the next test is PD-1/PD-L1 (Homo sapiens, UniProt Q9NZQ7). In words: PD-1/PD-L1 biochemical protein-protein interaction assay (ALPHA). It is filed as binding. As to conditions: 0.3 nM His tagged PD-L1, 2.5 nM biotinylated Fc-PD-1, 60 minutes at 25° C., read-out: IC50 PD-L1-PD-1 Alpha IC50-mono PD-L1-fcP-D1. Summed up:
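Compound blockade of the PD-1/PD-L1 extracellular-domain interaction measured as reduced ALPHA signal after 60 min at 25 °C, pH 7.4 Hepes buffer with EDTA, Tween 20 and BSA. Final proteins: His-tagged PD-L1 0.3 nM, biotinylated Fc-PD-1 2.5 nM; four-parameter curve fit gives IC50.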

T1 sequence (Q9NZQ7 19-290): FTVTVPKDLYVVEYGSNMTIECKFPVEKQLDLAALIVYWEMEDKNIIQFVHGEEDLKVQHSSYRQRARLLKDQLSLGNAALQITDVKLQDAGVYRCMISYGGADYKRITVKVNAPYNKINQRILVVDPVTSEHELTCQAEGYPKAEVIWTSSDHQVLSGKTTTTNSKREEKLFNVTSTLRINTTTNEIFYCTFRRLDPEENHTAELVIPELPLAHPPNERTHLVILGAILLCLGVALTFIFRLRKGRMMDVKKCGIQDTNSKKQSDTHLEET
T3 sequence (Q9NZQ7 19-290): as above
Sequence of PD-1/PD-L1 (Q9NZQ7 19-238 limits assumed): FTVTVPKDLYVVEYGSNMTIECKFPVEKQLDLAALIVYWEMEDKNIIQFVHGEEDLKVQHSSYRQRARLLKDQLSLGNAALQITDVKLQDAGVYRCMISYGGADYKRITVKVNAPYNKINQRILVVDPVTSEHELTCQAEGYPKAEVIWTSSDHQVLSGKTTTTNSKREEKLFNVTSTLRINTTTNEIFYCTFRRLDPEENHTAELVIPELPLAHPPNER
T2 sequence (Q9NZQ7 19-238 limits assumed): as above
T2 sequence (Q9NZQ7 19-238 limits assumed): as above

Regarding `COc1nc(OCc2cccc(-c3cccc(COc4nc(OC)c(C5=NCCN5)cc4Cl)c3C)c2C)c(Cl)cc1C1=NCCN1` [Example 30, 6,6′-(((2,2′-dimethyl-[1,1′-biphenyl]-3,3′-diyl)bis(methylene))bis(oxy))bis(5-chloro-3-(4,5-dihydro-1H-imidazol-2-yl)-2-methoxypyridine)], the concentration giving a half-maximal response (EC50) at PD-1/PD-L1 interaction is at least 50000 nM; in test [1], 52.1 nM. In addition, at PD-L1, the half-maximal activity concentration (AC50) stood at 369 nM.

Take `Cc1c(COc2nc(OCc3cc(C#N)cc(C#N)c3)c(CN[C@@](C)(CO)C(=O)O)cc2Cl)cccc1-c1cccc(COc2nc(OCc3cc(C#N)cc(C#N)c3)c(CN[C@@](C)(CO)C(=O)O)cc2Cl)c1C` [Example 123, (2S,2′S)-2,2′-((((((2,2′-dimethyl-[1,1′-biphenyl]-3,3′-diyl)bis(methylene))bis(oxy))bis(5-chloro-2-((3,5-dicyanobenzyl)oxy)pyridine-6,3-diyl))bis(methylene))bis(azanediyl))bis(3-hydroxy-2-methylpropanoic acid)]: the results for the EC50 (at PD-1/PD-L1 interaction; in test [1]) were 75 nM and 137 nM, respectively. Also, the AC50 at PD-L1 turned out to be 198 nM.

`Cc1c(COc2cc(OCc3cncc(C#N)c3)c(CNC[C@@H](O)CC(=O)O)cc2Cl)cccc1-c1cccc(-c2ccc3sc(CNC[C@@H](O)CC(=O)O)cc3c2)c1C` [Example 211]: the EC50 on PD-1/PD-L1 interaction was determined as 304 nM; in test [1], 45.6 nM. Moreover, the AC50 at PD-L1 amounted to 81.2 nM.

As to `COc1nc(OCc2cccc(-c3cccc(COc4nc(OC)c(CNCCCC(=O)O)cc4Cl)c3C)c2C)c(Cl)cc1CNCCCC(=O)O` [Example 183, 4,4′-((((((2,2′-dimethyl-[1,1′-biphenyl]-3,3′-diyl)bis(methylene))bis(oxy))bis(5-chloro-2-methoxypyridine-6,3-diyl))bis(methylene))bis(azanediyl))dibutyric acid], the 50% effective concentration (EC50) on PD-1/PD-L1 interaction was 141 nM; in test [1], 69.1 nM. The concentration at half-maximal activity (AC50) at PD-L1 turned out to be 260 nM.

On to `Cc1c(COc2nc(OC[C@H]3CCC(=O)N3)c(CNCC(=O)O)cc2Br)cccc1-c1cccc(COc2nc(OC[C@H]3CCC(=O)N3)c(CNCC(=O)O)cc2Br)c1C` [Example 129, 2,2′-((((((2,2′-dimethyl-[1,1′-biphenyl]-3,3′-diyl)bis(methylene))bis(oxy))bis(5-bromo-2-(((R)-5-oxopyrrolidin-2-yl)methoxy)pyridine-6,3-diyl))bis(methylene))bis(azanediyl))diacetic acid], for which the EC50 on PD-1/PD-L1 interaction worked out at 198 nM; in test [1], 221 nM. For the same compound, the AC50 on PD-L1 was 167 nM.

Regarding `Cc1c(COc2nc(OCCCCC#N)c(CNC[C@@H](O)CC(=O)O)cc2Br)cccc1-c1cccc(COc2nc(OCCCCC#N)c(CNC[C@@H](O)CC(=O)O)cc2Br)c1C` [Example 143, (3S,3′S)-4,4′-((((((2,2′-dimethyl-[1,1′-biphenyl]-3,3′-diyl)bis(methylene))bis(oxy))bis(5-bromo-2-(4-cyanobutoxy)pyridine-6,3-diyl))bis(methylene))bis(azanediyl))bis(3-hydroxybutanoic acid)], the EC50 worked out at 217 nM on PD-1/PD-L1 interaction and 296 nM in test [1]. In addition, the concentration at half-maximal activity (AC50) on PD-L1 came out at 395 nM.

As for `Cc1c(COc2nc(OC[C@@H]3CCC(=O)N3)c(CNCC(=O)O)cc2Br)cccc1-c1cccc(COc2nc(OC[C@@H]3CCC(=O)N3)c(CNCC(=O)O)cc2Br)c1C` [Example 130, 2,2′-((((((2,2′-dimethyl-[1,1′-biphenyl]-3,3′-diyl)bis(methylene))bis(oxy))bis(5-bromo-2-(((S)-5-oxopyrrolidin-2-yl)methoxy)pyridine-6,3-diyl))bis(methylene))bis(azanediyl))diacetic acid], the EC50 at PD-1/PD-L1 interaction amounted to 164 nM; in test [1], 123 nM. In addition, the AC50 at PD-L1 came out at 237 nM.

For `COc1nc(OCc2cccc(-c3cccc(-c4ccc(OCCNC[C@@H](O)CC(=O)O)cc4)c3C)c2C)c(Cl)cc1CNC[C@@H](O)CC(=O)O` [Example 109, (S)-4-(((6-((4″-(2-(((S)-3-carboxy-2-hydroxypropyl)amino)ethoxy)-2,2′-dimethyl-[1,1′:3′,1″-terphenyl]-3-yl)methoxy)-5-chloro-2-methoxypyridin-3-yl)methyl)amino)-3-hydroxybutanoic acid], the concentration giving a half-maximal response (EC50) on PD-1/PD-L1 interaction worked out at 662 nM; in test [1], 7.5 nM. Also, the AC50 on PD-L1 came out at 113 nM.

Turning to `COc1nc(OCc2cccc(-c3cccc(COc4nc(OC)c(CN[C@H](C)C(=O)O)cc4Cl)c3C)c2C)c(Cl)cc1CN[C@H](C)C(=O)O` [Example 90, (2R,2′R)-2,2′-((((((2,2′-dimethyl-[1,1′-biphenyl]-3,3′-diyl)bis(methylene))bis(oxy))bis(5-chloro-2-methoxypyridine-6,3-diyl))bis(methylene))bis(azanediyl))dipropionic acid], the figures for the EC50 (at PD-1/PD-L1 interaction; in test [1]) were 113 nM and 219 nM, respectively. Moreover, the AC50 on PD-L1 is at least 10000 nM.

Take `CNC(=O)COc1nc(OCc2cccc(-c3cccc(COc4nc(OCC(=O)NC)c(CNC[C@@H](O)CC(=O)O)cc4Br)c3C)c2C)c(Br)cc1CNC[C@@H](O)CC(=O)O` [Example 147, (3S,3′S)-4,4′-((((((2,2′-dimethyl-[1,1′-biphenyl]-3,3′-diyl)bis(methylene))bis(oxy))bis(5-bromo-2-(2-(methylamino)-2-oxoethoxy)pyridine-6,3-diyl))bis(methylene))bis(azanediyl))bis(3-hydroxybutanoic acid)]: the IC50 on PD-1/PD-L1 is 0.3 nM. Further, the EC50 was determined as 1200 nM on PD-1/PD-L1 interaction and 117 nM in test [1].

As to `COc1nc(OCc2cccc(-c3cccc(COc4ccc(CN[C@@](C)(CO)C(=O)O)c(OC)n4)c3C)c2C)ccc1CN[C@@](C)(CO)C(=O)O` [Example 61, (2S,2′S)-2,2′-((((((2,2′-dimethyl-[1,1′-biphenyl]-3,3′-diyl)bis(methylene))bis(oxy))bis(2-methoxypyridine-6,3-diyl))bis(methylene))bis(azanediyl))bis(3-hydroxy-2-methylpropanoic acid)], on PD-1/PD-L1, the IC50 was found to be 0.7 nM. For the same compound, the EC50 on PD-1/PD-L1 interaction was 6780 nM; in test [1], 200 nM.

Turning to `Cc1c(COc2cc(OCc3cncc(C#N)c3)c(CNCCO)cc2Cl)cccc1-c1cccc(COc2cc(OCc3cncc(C#N)c3)c(CNCCO)cc2Cl)c1C` [Example 68, 5,5′-((((((2,2′-dimethyl-[1,1′-biphenyl]-3,3′-diyl)bis(methylene))bis(oxy))bis(4-chloro-6-(((2-hydroxyethyl)amino)methyl)-3,1-phenylene))bis(oxy))bis(methylene))dinicotinonitrile], at PD-1/PD-L1, the half-inhibitory concentration (IC50) worked out at 10.3 nM. Also, the EC50 at PD-1/PD-L1 interaction amounted to 553 nM; in test [1], 279 nM.

On to `Cc1c(COc2ccc(CNC[C@@H](O)CC(=O)O)c(OCc3cncnc3)n2)cccc1-c1cccc(COc2ccc(CNC[C@@H](O)CC(=O)O)c(OCc3cncnc3)n2)c1C` [Example 157, (3S,3′S)-4,4′-((((((2,2′-dimethyl-[1,1′-biphenyl]-3,3′-diyl)bis(methylene))bis(oxy))bis(2-(pyrimidin-5-ylmethoxy)pyridine-6,3-diyl))bis(methylene))bis(azanediyl))bis(3-hydroxybutanoic acid)], for which the IC50 at PD-1/PD-L1 was determined as 0.2 nM. The EC50 worked out at 465 nM on PD-1/PD-L1 interaction and 81.1 nM in test [1].

In the case of `COc1nc(OC2CCc3c(-c4cccc5c4CCC5Oc4nc(OC)c(CNC[C@@H](O)CC(=O)O)cc4Cl)cccc32)c(Cl)cc1CNC[C@@H](O)CC(=O)O` (stereo partly drawn) [Example 9, (3S,3′S)-4,4′-(((((2,2′,3,3′-tetrahydro-1H,1′H-[4,4′-biindene]-1,1′-diyl)bis(oxy))bis(5-chloro-2-methoxypyridine-6,3-diyl))bis(methylene))bis(azanediyl))bis(3-hydroxybutanoic acid)], the 50% inhibitory concentration (IC50) on PD-1/PD-L1 was determined as 0.5 nM. The concentration giving a half-maximal response (EC50) stood at 340 nM at PD-1/PD-L1 interaction and 102 nM in test [1].

As to `COc1nc(O[C@H]2CCc3c(-c4cccc5c4CC[C@@H]5Oc4ccc(CNC[C@@H](O)CC(=O)O)c(OC)n4)cccc32)ccc1CNC[C@@H](O)CC(=O)O` [Example 11, (3S,3′S)-4,4′-((((((1S,1′S)-2,2′,3,3′-tetrahydro-1H,1′H-[4,4′-biindene]-1,1′-diyl)bis(oxy))bis(2-methoxypyridine-6,3-diyl))bis(methylene))bis(azanediyl))bis(3-hydroxybutanoic acid)], the half-inhibitory concentration (IC50) on PD-1/PD-L1 was 0.4 nM. In addition, the EC50 is 1100 nM at PD-1/PD-L1 interaction and 170 nM in test [1].

As usually defined, the EC50 is the midpoint of the concentration-response curve. As a reminder, the AC50 is the midpoint of the concentration-response curve, whichever way the signal moves. Broadly, the IC50 is the point on the concentration scale where inhibition reaches its midpoint.
